Values joined by “and” are separate entries in the source; they are usually repeats but may differ in a detail not shown here. Equal entries are not always repeated.
Columns and labels:
SALL4 = target: T1, SALL4 (Homo sapiens, UniProt Q96SW2+Q9UJQ4); assay: HiBiT degradation assay, NCCIT/SALL4-HiBiT KI cells; type: cell-based; details: N ≥ 3; for EC50: degradation, 2 hr incubation, top conc 10 uM; for SALL4 Ymin: depth of degradation (100% = no reduction, 0% = complete degradation), 2 hr
T1 construct: endogenous in cells; host or cells: NCCIT (HiBiT knock-in)
T1 sequence (Q9UJQ4 whole entry): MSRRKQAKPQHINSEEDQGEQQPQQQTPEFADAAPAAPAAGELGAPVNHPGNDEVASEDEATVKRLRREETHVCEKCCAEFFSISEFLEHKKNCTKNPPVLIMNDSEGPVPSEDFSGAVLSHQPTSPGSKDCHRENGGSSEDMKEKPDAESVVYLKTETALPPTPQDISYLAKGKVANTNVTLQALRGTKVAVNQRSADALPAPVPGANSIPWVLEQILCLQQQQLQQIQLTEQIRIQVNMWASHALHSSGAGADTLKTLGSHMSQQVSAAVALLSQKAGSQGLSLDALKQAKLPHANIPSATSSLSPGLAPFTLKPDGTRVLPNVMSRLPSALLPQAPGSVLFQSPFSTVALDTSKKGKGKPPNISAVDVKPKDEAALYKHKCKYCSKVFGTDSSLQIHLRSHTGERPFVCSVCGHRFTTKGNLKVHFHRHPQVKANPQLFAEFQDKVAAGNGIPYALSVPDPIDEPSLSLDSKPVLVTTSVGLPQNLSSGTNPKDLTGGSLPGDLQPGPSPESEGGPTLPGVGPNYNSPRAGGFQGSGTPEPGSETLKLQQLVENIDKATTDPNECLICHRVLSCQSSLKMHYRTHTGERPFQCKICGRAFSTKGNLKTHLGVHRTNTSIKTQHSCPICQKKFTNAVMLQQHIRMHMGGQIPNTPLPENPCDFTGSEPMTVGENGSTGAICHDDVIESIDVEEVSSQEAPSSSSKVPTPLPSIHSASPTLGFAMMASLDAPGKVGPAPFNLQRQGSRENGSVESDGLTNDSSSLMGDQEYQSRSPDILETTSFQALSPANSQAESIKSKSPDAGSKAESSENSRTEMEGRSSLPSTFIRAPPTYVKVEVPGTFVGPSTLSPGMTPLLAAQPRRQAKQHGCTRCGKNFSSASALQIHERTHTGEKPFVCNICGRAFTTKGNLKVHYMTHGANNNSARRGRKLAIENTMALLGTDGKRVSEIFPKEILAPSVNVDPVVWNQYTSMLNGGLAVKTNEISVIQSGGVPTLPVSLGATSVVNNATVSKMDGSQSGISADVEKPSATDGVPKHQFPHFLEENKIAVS
T1 sequence (Q96SW2 whole entry): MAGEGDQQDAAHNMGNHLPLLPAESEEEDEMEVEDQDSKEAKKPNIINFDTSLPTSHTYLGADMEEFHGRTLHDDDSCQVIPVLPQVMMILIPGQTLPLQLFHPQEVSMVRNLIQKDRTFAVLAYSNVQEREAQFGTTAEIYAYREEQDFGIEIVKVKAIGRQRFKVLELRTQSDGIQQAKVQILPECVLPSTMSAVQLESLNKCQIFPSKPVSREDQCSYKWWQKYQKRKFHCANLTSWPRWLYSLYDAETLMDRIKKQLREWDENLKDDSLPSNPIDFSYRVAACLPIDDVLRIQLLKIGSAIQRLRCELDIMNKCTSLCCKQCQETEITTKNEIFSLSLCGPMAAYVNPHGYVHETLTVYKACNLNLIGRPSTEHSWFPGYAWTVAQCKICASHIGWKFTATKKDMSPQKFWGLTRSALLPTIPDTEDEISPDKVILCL
T1 sequence (Q16531 whole entry partner): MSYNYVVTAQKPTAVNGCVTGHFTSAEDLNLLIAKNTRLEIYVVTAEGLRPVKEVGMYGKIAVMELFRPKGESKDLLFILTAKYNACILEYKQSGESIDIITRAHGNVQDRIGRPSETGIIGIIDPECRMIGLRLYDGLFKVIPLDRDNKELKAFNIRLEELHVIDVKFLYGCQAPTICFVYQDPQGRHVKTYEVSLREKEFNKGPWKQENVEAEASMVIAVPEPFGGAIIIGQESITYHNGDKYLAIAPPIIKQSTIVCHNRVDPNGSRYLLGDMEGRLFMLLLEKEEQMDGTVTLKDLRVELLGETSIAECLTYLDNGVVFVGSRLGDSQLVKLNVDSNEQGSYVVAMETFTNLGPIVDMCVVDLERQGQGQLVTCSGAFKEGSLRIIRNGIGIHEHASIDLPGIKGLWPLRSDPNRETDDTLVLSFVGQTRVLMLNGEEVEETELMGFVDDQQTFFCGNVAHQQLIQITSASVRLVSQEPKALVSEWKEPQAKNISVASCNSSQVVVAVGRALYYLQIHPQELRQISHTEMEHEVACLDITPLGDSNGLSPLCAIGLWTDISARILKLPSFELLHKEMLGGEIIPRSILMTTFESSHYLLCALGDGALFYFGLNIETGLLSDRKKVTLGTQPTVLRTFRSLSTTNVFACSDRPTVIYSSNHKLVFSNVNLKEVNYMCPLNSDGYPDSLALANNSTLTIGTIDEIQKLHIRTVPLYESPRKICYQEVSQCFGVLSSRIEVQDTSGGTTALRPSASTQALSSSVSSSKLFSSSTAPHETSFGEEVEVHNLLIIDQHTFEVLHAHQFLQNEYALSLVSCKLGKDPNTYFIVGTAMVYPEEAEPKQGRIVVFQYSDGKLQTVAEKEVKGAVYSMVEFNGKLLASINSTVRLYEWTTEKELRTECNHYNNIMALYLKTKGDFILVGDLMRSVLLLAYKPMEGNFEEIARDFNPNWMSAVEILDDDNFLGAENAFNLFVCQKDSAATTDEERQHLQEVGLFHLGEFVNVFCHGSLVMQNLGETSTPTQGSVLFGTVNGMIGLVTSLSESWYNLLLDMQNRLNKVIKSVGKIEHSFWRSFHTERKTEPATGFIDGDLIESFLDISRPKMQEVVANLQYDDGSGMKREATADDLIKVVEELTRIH
Description: (§1) Section 6: Assay Protocols
(§2) Fluorescence Resonance Energy Transfer-Based NSD@ PWWP Cereblon Binding Assay. […]
(§3) Compounds for testing were spotted into a 1536 well plate (Greiner Cat#782075). CRBN and Tracer solution were incubated in compound wells for 20 minutes. Detection mix containing Anti6xHis Tb Crytate (CisBio Cat#61HI2TLF) was then added to assay wells for a final 0.5x assay concentration of detection antibody (stock is provided at 400x). Plates were incubated for 30 minutes before being read on Pherastar FSX plate reader using TR-FRET module (Excitation 340nm, Emssion 615/665nm). ePL and HiBiT degradation assays
(§4) DF15 cells overexpressing ePL tagged GSPT1 (DF15/GSPT1 ePL OE) was used to monitor the degradation of GSPT1 induced by experimental compounds. MDS-L cells overexpressing ePL tagged CK1α and GSPT1G575N (MDS-L/CK1α ePL OE_ GSPT1G575N OE) was used to monitor the degradation of CK1α induced by experimental compounds. NCCIT cells with HiBiT tag knocked in at the c-terminus of SALL4 (NCCIT/SALL4-HiBiT KI) was used to monitor the degradation of SALL4 induced by experimental compounds. DF15 cells with HiBiT tag knocked in at the n-terminus of IKZF3 (DF15/HiBiT-IKZF3 KI) was used to monitor the degradation of AIOLOS (IKZF3) induced by experimental compounds. […]
(§5) The cell culture medium recipes, seeding densities and compound incubation time with cells are […]
(§6) Ta r g e t Cell line Cell culture medium Seeding Compound
(§7) (HI) FBS, 1mM sodium pyruvate, 25mM Hepes, 0.1% pluronic acid,
(§8) GSPT1G575N OE ng/mL of human recombinant IL3 […]
(§9) sodium pyruvate, 25mM Hepes, 0.1% pluronic acid, 1X NEAA
(§10) For all degradation assays, compounds were pre-spotted in a 153 6 well plate (Corning 3727) starting at 10uM with 3-fold serial dilution down 11 points in replicates using an Echo 650 series acoustic liquid handler. 5uL/well cells were seeded in the assay ready plate at the density and in […]
(§11) The final DMSO concentration in the cell culture was 0.25%. The plates were equilibrated at room temperature for 30 minutes before putting into a 37 °C CO2 incubator. After appropriate incubation period, plates were retrieved from the incubator and set at room temperature to equilibrate for 30 minutes, before adding ePL or HiBiT detection reagent. For ePL detection, the pre-prepared mixture of EA reagent, lysis buffer, and substrate reagent at ratio 1:1:4 from the DiscoverX InCELL Detection Kit (Eurofins 96-0079L) according to the manufacturer ’s recommendation was added 3ul/well into the plate. Plates were incubated in the dark for 1hr at room temperature before reading using a BMG PheraStar luminescence reader. For HiBiT detection, Nano-Glo HiBiT Lytic Reagent (Promega, N3050) prepared according to the manufacturer ’s recommendation was added 3 uL/well into the plate. Plates were incubated 30 minutes at room temperature in the dark before reading using a BMG PheraStar […]
(§12) To determine EC50 values for degradation, a four parameter logistic model (Sigmoidal Dose-Response Model) (FIT= (A+((B-A)/1+((C/x)^D)))) C is the inflection point (EC50), D is […] , A and B are the low and high limits of the fit respectively) was used to determine the compound’s EC50 value, which is the half maximum effective concentration. In the degradation assays, the Yconst of each compound was calculated by normalizing the lowest point of the fitted curve to the media only control, which is 0%, and the cells treated with DMSO control, which is 100%. All degradation curves were processed and evaluated using Dotmatics.
(§13) Section 7: Biological Data Tables

CK1α = target: T2, CK1α (Homo sapiens, UniProt P48729+Q96SW2); assay: ePL degradation assay, MDS-L/CK1α ePL OE_GSPT1G575N OE cells; type: cell-based; details: for EC50: degradation, 4 hr incubation, top conc 10 uM, N ≥ 3, read-out: CK1a EC50; for CK1a Ymin: depth of degradation (100% = no reduction, 0% = complete degradation), 4 hr, N ≥ 3
T2 construct: expressed in transfected cells; host or cells: MDS-L
T2 sequence (P48729 whole entry): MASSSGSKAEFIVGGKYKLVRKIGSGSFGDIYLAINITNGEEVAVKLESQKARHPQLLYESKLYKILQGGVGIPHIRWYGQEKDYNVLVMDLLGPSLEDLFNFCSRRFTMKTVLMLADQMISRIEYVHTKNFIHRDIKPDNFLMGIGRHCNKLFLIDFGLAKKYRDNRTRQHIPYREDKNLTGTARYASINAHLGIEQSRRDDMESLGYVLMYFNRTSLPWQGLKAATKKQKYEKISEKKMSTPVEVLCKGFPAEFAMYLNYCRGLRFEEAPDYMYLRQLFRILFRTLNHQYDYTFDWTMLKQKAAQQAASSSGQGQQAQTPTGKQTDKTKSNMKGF
T2 sequence (Q96SW2 whole entry): as the sequence (Q96SW2 whole entry) above
T2 sequence (Q16531 whole entry partner): as the sequence (Q16531 whole entry partner) above
Description: as §1, §2, §3, §4, §5, §6, §7, §8, §9, §10, §11, §12, §13

IKZF3 (Aiolos) = target: T3, IKZF3 (Aiolos) (Homo sapiens, UniProt Q96SW2+Q9UKT9); assay: HiBiT degradation assay, DF15/HiBiT-IKZF3 KI cells; type: cell-based; details: N ≥ 3; for EC50: degradation, 4 hr incubation, top conc 10 uM; for IKZF3 Ymin: depth of degradation (100% = no reduction of protein level, 0% = complete degradation), 4 hr
T3 construct: endogenous in cells; host or cells: DF15 (HiBiT knock-in)
T3 sequence (Q9UKT9 whole entry): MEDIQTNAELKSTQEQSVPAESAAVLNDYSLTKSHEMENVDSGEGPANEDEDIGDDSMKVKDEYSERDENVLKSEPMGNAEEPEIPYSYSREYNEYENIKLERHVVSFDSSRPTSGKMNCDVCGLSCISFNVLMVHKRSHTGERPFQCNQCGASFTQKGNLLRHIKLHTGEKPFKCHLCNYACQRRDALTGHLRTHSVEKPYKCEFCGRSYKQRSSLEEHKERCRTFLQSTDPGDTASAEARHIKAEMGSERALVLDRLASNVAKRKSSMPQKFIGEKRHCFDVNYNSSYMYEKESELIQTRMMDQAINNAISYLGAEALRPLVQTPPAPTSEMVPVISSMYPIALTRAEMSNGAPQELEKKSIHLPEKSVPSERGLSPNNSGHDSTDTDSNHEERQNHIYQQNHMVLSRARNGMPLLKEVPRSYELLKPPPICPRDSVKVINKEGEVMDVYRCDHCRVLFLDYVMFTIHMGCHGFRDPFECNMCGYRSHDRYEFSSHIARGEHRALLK
T3 sequence (Q96SW2 whole entry): as the sequence (Q96SW2 whole entry) above
T3 sequence (Q16531 whole entry partner): as the sequence (Q16531 whole entry partner) above
Description: as §1, §2, §3, §4, §5, §6, §7, §8, §9, §10, §11, §12, §13

CRBN = target: T4, CRBN (Homo sapiens, UniProt Q96SW2); assay: Fluorescence Resonance Energy Transfer-Based Cereblon Binding Assay (CRBN HTRF); details: 0.5 nM 6×His-CRBN-DDB1, 20 nM tracer CC0782985, TR-FRET
T4 construct: (CRBN a.a. 1−442, DDB1 a.a); made in house
T4 sequence (Q96SW2 whole entry): as the sequence (Q96SW2 whole entry) above
T4 sequence (Q16531 whole entry partner): as the sequence (Q16531 whole entry partner) above
Description: as §1, §2, §3, §4

GSPT1 = target: T5, GSPT1 (Homo sapiens, UniProt P15170+Q96SW2); assay: ePL degradation assay, DF15/GSPT1 ePL OE cells; type: cell-based; details: N ≥ 3; for EC50: degradation, 20 hr incubation, top conc 10 uM; for GSPT1 Ymin: depth of degradation (100% = no reduction, 0% = complete degradation), 20 hr
T5 construct: expressed in transfected cells; host or cells: DF15
T5 sequence (P15170 1-637 isoform P15170-3): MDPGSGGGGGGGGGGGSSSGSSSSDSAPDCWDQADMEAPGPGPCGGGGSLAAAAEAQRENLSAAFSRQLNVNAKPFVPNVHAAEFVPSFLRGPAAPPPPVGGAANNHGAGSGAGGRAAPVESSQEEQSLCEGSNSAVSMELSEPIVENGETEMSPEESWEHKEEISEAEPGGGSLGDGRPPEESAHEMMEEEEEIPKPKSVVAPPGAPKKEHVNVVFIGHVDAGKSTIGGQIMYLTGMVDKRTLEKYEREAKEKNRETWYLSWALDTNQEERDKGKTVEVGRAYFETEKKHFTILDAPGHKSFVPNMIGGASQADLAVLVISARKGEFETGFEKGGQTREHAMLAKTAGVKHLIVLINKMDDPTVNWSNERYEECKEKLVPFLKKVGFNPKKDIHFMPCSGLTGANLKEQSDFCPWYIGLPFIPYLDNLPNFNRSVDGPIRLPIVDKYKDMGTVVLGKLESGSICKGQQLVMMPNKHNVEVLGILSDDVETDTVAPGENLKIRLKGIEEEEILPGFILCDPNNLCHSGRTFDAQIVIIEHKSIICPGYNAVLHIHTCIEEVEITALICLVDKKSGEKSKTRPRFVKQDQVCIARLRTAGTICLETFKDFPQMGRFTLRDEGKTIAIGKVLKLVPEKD
T5 sequence (Q96SW2 whole entry): as the sequence (Q96SW2 whole entry) above
T5 sequence (Q16531 whole entry partner): as the sequence (Q16531 whole entry partner) above
Description: as §1, §2, §3, §4, §5, §6, §7, §8, §9, §10, §11, §12, §13

Structure (SMILES)	EC50 (SALL4) [µM]	SALL4 Ymin (SALL4) [%]	EC50 (CK1α) [µM]	CK1a Ymin (CK1α) [%]	EC50 (IKZF3 (Aiolos))	IC50 (CRBN) [µM]	EC50 (GSPT1)	GSPT1 Ymin (GSPT1) [%]	IKZF3 Ymin (IKZF3 (Aiolos))
O=C1CCC(N2Cc3c(cccc3[C@@H]3C[C@]3(C(=O)OCC(Cl)(Cl)Cl)c3ccc(Br)cc3)C2=O)C(=O)N1 (some centres unmarked) [Compound 13a]	> 10	85 ± 7.3	> 10	87 ± 0.55	> 10 µM and 1.86 µM	0.66	> 10 µM	92 ± 7.8	–
O=C1CCC(N2Cc3c(cccc3[C@H]3C[C@@]3(C(=O)OCC(Cl)(Cl)Cl)c3ccc(Br)cc3)C2=O)C(=O)N1 (some centres unmarked) [Compound 13b]	> 10	97 ± 3.1	> 10	90 ± 7.1	> 10 µM	2.4	> 10 µM	99 ± 2.2	97 ± 4.9%
O=C1CCC(N2C(=O)c3cccc([C@@H]4C[C@]4(C(=O)OCC(Cl)(Cl)Cl)c4ccc(Br)cc4)c3C2=O)C(=O)N1 (some centres unmarked) [Compound 14a]	> 10	91 ± 8.0	> 10	92 ± 3.8	> 10 µM	> 10	> 10 µM	91 ± 16	89 ± 3.2%
O=C1CCC(N2C(=O)c3cccc([C@H]4C[C@@]4(C(=O)OCC(Cl)(Cl)Cl)c4ccc(Br)cc4)c3C2=O)C(=O)N1 (some centres unmarked) [Compound 14b]	> 10	87 ± 13	> 10	94 ± 5.1	> 10 µM	7.9	> 10 µM	87 ± 11	–
O=C1CCC(N2Cc3cc([C@@H]4C[C@]4(C(=O)OCC(Cl)(Cl)Cl)c4ccc(Br)cc4)ccc3C2=O)C(=O)N1 (some centres unmarked) [Compound 15a]	> 10	99 ± 1.2	> 10	–	> 10 µM	0.39	> 10 µM	96 ± 7.8	100 ± 4.6%
O=C1CCC(N2Cc3cc([C@H]4C[C@@]4(C(=O)OCC(Cl)(Cl)Cl)c4ccc(Br)cc4)ccc3C2=O)C(=O)N1 (some centres unmarked) [Compound 15b]	0.16 ± 0.05	67 ± 5.4	0.22 ± 0.089	–	> 10 µM	1.3	> 10 µM	83 ± 7.0	89 ± 5.0%
O=C1CCC(N2C(=O)c3ccc([C@@H]4C[C@]4(C(=O)OCC(Cl)(Cl)Cl)c4ccc(Br)cc4)cc3C2=O)C(=O)N1 (some centres unmarked) [Compound 16a]	> 10	92 ± 8.2	> 10	94 ± 9.9	> 10 µM	5.3	> 10 µM	–	94 ± 8.3%
O=C1CCC(N2C(=O)c3ccc([C@H]4C[C@@]4(C(=O)OCC(Cl)(Cl)Cl)c4ccc(Br)cc4)cc3C2=O)C(=O)N1 (some centres unmarked) [Compound 16b]	0.41 ± 0.16	60 ± 6.1	> 10	85 ± 4.1	> 10 µM	> 10	> 10 µM and 3.1 µM	–	97 ± 3.6%
O=C1CCC(N2Cc3ccc([C@@H]4C[C@]4(C(=O)OCC(Cl)(Cl)Cl)c4ccc(Br)cc4)cc3C2=O)C(=O)N1 (some centres unmarked) [Compound 17a]	> 10	97 ± 2.2	> 10	98 ± 12	> 10 µM	2.1	> 10 µM	95 ± 5.4	95 ± 7.6%
O=C1CCC(N2Cc3ccc([C@H]4C[C@@]4(C(=O)OCC(Cl)(Cl)Cl)c4ccc(Br)cc4)cc3C2=O)C(=O)N1 (some centres unmarked) [Compound 17b]	> 10	96 ± 3.1	> 10	96 ± 12	> 10 µM	2.5	> 10 µM	93 ± 5.8	89 ± 6.5%
O=C1CCC(N2Cc3cccc([C@@H]4C[C@]4(C(=O)OCC(Cl)(Cl)Cl)c4ccc(Br)cc4)c3C2=O)C(=O)N1 (some centres unmarked) [Compound 18a]	> 10	93 ± 3.8	> 10	89 ± 1.7	> 10 µM	> 10	> 10 µM	87 ± 6.5	91 ± 0.6%
O=C1CCC(N2Cc3cccc([C@H]4C[C@@]4(C(=O)OCC(Cl)(Cl)Cl)c4ccc(Br)cc4)c3C2=O)C(=O)N1 (some centres unmarked) [Compound 18b]	> 10	96 ± 5.4	> 10	91 ± 7.1	> 10 µM	> 10	> 10 µM	83 ± 15	96 ± 5.7%
O=C1CCC(N2Cc3c(cccc3C3=C[C@]3(C(=O)OCC(Cl)(Cl)Cl)c3ccc(Br)cc3)C2=O)C(=O)N1 (some centres unmarked) [Compound 19a]	0.019 ± 0.01	23 ± 4.5	0.17 ± 0.18	64 ± 4.3	0.012 µM	0.16	0.17 ± 0.13 µM	64 ± 8.7	–
O=C1CCC(N2Cc3c(cccc3C3=C[C@@]3(C(=O)OCC(Cl)(Cl)Cl)c3ccc(Br)cc3)C2=O)C(=O)N1 (some centres unmarked) [Compound 19b]	0.17 ± 0.06	35 ± 5.9	1.5 ± 1.1	60 ± 7.4	0.11 ± 0.05 µM	0.35	0.55 ± 0.47 µM	66 ± 5.5	69 ± 3.3% and 69%
O=C1CCC(N2C(=O)c3cccc(C4=C[C@]4(C(=O)OCC(Cl)(Cl)Cl)c4ccc(Br)cc4)c3C2=O)C(=O)N1 (some centres unmarked) [Compound 20a]	0.56 ± 0.27	34 ± 7.4	1.5 ± 0.94	56 ± 14	0.9 ± 0.18 µM	4.6	4.3 ± 1.9 µM	12 ± 13	40 ± 2.2%
O=C1CCC(N2C(=O)c3cccc(C4=C[C@@]4(C(=O)OCC(Cl)(Cl)Cl)c4ccc(Br)cc4)c3C2=O)C(=O)N1 (some centres unmarked) [Compound 20b]	2.8 ± 1.6	57 ±7.7	2.1 ± 1.3	54 ± 8.9	3.7 µM and 3.67 µM	–	5.1 ± 1.4 µM	17 ± 13	10 ± 8.2% and 10%
O=C1CCC(N2C(=O)c3ccc(C4=C[C@@]4(C(=O)OCC(Cl)(Cl)Cl)c4ccc(Br)cc4)cc3C2=O)C(=O)N1 (some centres unmarked) [Compound 22b]	2.4 ± 1.7	58 ± 3.2	1.6 ± 0.71	55 ± 39	0.31 ± 0.11 µM	7.8	–	–	71 ± 9.7%
